Laboratory results reported in patent US6610677B2, “Pyrazole compounds useful as protein kinase inhibitors” (Vertex Pharmaceuticals Incorporated, priority 2000, dated 2003).

What was measured:
[1] = target: T1, GSK-3β (AA 1-420) (Homo sapiens, UniProt P49841); test: Ki determination for the inhibition of GSK-3 (coupled enzyme system); assay type: biochemical; conditions: 20 μM ATP, 300 μM peptide, 20 nM GSK-3β, 30° C
T1 construct: GSK-3β (AA 1-420)
In short: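 Ki values come from reaction rates over 10 min at 30 °C as a function of inhibitor concentration (12-point titration, 0.002–30 μM, 10 min preincubation). GSK-3β (AA 1-420, 20 nM) phosphorylated 300 μM primed peptide with 20 μM ATP; ADP formation followed by coupled NADH oxidation, pH 7.5.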

[2] = target: T2, Aurora-2 (Homo sapiens, UniProt O14965); test: Ki determination for the inhibition of Aurora-2 (coupled enzyme assay); assay type: biochemical; conditions: 70 nM Aurora-2, peptide LRRASLG, 30° C
T2 sequence (O14965 1-403): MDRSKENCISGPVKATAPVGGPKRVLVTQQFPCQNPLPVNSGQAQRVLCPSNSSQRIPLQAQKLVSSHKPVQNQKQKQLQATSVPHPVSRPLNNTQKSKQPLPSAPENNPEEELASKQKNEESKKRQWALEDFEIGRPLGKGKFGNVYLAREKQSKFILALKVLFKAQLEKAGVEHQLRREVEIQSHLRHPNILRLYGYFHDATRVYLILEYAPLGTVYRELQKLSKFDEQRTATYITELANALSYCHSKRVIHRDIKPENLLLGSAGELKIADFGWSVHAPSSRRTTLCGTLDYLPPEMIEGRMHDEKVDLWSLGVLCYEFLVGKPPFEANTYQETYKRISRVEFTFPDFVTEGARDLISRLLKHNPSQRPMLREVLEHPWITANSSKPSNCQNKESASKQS
In short: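 Ki came from reaction rates plotted against inhibitor concentration, with rates taken as A340 decrease over 5 min at 30° C. Enzyme (70 nM final) was added after 10 min compound preincubation; stock buffer held […], 800 μM LRRASLG, PK/LDH coupling, pH 7.5.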

[3] = target: activated ERK2 (Homo sapiens, UniProt P28482); test: ERK inhibition assay (spectrophotometric coupled-enzyme assay); assay type: biochemical; conditions: 10 nM activated ERK2, 65 μM ATP, 200 μM erktide; read-out: Ki value for ERK-2
Experimental: Compounds were assayed for the inhibition of ERK2 by a spectrophotometric coupled-enzyme assay (Fox et al (1998) Protein Sci 7, 2249). In this assay, a fixed concentration of activated ERK2 (10 nM) was incubated with various concentrations of the compound in DMSO (2.5%) for 10 min. at 30° C. in 0.1 M HEPES buffer, pH 7.5, containing 10 mM MgCl2, 2.5 mM phosphoenolpyruvate, 200 μM NADH, 150 μg/mL pyruvate kinase, 50 μg/mL lactate dehydrogenase, and 200 μM erktide peptide. The reaction was initiated by the addition of 65 μM ATP. The rate of decrease of absorbance at […] was monitored. The IC50 was evaluated from the rate data as a function of inhibitor concentration.

[4] = target: T3, human Src kinase (Homo sapiens, UniProt P12931); test: SRC inhibition assay (radioactivity-based or spectrophotometric assay); assay type: biochemical; conditions: assay A or B not specified; read-out: Ki value on SRC
T3 construct: full length recombinant human Src kinase; purchased Upstate Biotechnology 14-117; host or cells: baculo viral cells (baculovirus expression system)
Experimental: The compounds were evaluated as inhibitors of human Src kinase using either a radioactivity-based assay or spectrophotometric assay. The compounds were assayed as inhibitors of full length recombinant human Src kinase (from Upstate Biotechnology, cat. no. 14-117) expressed and purified from baculo viral cells. […] P-0275). […] In a typical assay, all the reaction components with the exception of ATP were pre-mixed and aliquoted into assay plate wells. Inhibitors dissolved in DMSO were added to the wells to give a final DMSO concentration of 2.5%. The assay plate was incubated at 30° C. for 10 min before initiating the reaction with ^33P-ATP. After 20 min of reaction, the reactions were quenched with 150 μl of 10% trichloroacetic acid (TCA) containing 20 mM Na3PO4. The quenched samples were then transferred to a 96-well filter plate (Whatman, UNI-Filter GF/F Glass Fiber Filter, cat no. 7700-3310) installed on a filter plate vacuum manifold. Filter plates were washed four times with 10% TCA containing 20 mM Na3PO4 and then 4 times with methanol. 200 μl of scintillation fluid was then added to each well. The plates were sealed and the amount of radioactivity associated with the filters was quantified on a TopCount scintillation counter. The radioactivity incorporated was plotted as a function of the inhibitor concentration. The data was fitted to a competitive inhibition kinetics model to get the Ki for the compound. The ADP produced from ATP by the human recombinant Src kinase-catalyzed phosphorylation of poly Glu-Tyr substrate was quanitified using a coupled enzyme assay (Fox et al (1998) Protein Sci 7, 2249). In this assay one molecule of NADH is oxidised to NAD for every molecule of ADP produced in the kinase reaction. The disappearance of NADH can be conveniently followed at 340 nm. […] In a typical assay, all the reaction components with the exception of ATP were pre-mixed and aliquoted into assay plate wells. Inhibitors dissolved in DMSO were added to the wells to give a final DMSO concentration of 2.5%. […] The absorbance change at 340 nm with time, the rate of the reaction, was monitored on a molecular devices plate reader. The data of rate as a function of the inhibitor concentration was fitted to compettive inhibition kinetics model to get the Ki for the compound.

T1 sequence (P49841 whole entry, the tested form may be a part): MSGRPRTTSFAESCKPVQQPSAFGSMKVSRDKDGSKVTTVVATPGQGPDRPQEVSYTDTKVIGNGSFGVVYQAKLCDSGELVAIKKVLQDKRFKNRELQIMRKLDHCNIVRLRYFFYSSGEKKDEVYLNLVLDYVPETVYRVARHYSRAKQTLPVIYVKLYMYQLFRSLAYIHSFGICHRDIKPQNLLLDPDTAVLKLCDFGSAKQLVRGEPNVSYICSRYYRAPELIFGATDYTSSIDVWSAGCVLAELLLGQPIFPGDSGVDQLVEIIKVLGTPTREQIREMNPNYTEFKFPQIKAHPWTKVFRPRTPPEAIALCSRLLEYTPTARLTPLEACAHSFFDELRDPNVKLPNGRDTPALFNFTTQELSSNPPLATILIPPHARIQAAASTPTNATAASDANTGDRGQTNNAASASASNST
Chain of activated ERK2 (P28482 whole entry): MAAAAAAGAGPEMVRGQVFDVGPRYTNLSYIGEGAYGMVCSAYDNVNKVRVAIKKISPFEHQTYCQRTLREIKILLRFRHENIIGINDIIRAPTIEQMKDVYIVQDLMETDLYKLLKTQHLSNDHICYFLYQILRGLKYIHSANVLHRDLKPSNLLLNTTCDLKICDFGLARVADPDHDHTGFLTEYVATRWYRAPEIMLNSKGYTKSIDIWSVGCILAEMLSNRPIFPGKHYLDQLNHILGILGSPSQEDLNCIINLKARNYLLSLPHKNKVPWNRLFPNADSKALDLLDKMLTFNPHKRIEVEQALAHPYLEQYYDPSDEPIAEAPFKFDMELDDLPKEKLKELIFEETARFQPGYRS
T3 sequence (P12931 whole entry): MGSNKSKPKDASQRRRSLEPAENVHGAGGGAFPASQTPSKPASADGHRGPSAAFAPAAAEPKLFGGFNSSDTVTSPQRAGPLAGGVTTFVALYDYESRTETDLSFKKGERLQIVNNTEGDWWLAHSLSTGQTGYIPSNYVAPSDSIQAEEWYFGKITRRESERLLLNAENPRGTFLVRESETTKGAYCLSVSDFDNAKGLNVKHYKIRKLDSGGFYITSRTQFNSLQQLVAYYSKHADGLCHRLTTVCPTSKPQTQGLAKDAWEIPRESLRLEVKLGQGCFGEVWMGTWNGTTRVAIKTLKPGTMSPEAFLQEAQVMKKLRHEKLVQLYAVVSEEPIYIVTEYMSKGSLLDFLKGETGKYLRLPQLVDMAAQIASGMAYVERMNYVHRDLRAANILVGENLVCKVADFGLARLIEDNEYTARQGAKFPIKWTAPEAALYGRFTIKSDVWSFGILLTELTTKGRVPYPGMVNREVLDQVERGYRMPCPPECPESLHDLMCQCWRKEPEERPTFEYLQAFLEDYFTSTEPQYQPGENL

Row | Compound | Ki [1] [nM] | Ki [2] [nM] | Ki [3] [nM] | Ki [4] [nM] | melting point [°C]
1 | c1ccc(-c2nc(Nc3cc(C4CC4)n[nH]3)c3ccccc3n2)cc1 [III-40, (5-Cyclopropyl-2H-pyrazol-3-yl)-(2-phenyl-quinazolin-4-yl)-amine] | < 100 | < 100 | 1000 to 12000 | < 100 | 218 to 219
2 | c1ccc(-c2nc(Nc3ccn[nH]3)c3ccccc3n2)cc1 [III-63, (2-Phenyl-quinazolin-4-yl)-(2H-pyrazol-3-yl)-amine] | < 100 | < 100 | 1000 to 12000 | – | 247 to 249
3 | OCC1CCN(c2nc(Nc3cc(C4CC4)n[nH]3)c3ccccc3n2)CC1 [III-120, (5-Cyclopropyl-2H-pyrazol-3-yl)-[2-(4-hydroxymethylpiperidin-1-yl)-quinazolin-4-yl]-amine] | < 100 | < 100 | < 1000 | – | 142
4 | OC1(c2ccccc2)CCN(c2nc(Nc3cc(C4CC4)n[nH]3)c3ccccc3n2)CC1 [III-115, (5-Cyclopropyl-2H-pyrazol-3-yl)-[2-(4-hydroxy-4-phenylpiperidin-1-yl)-quinazolin-4-yl]-amine] | 100 to 1000 | < 100 | < 1000 | – | 131
5 | c1ccc2c(Nc3cc(C4CC4)n[nH]3)nc(N3CCCCCC3)nc2c1 [III-117] | < 100 | < 100 | < 1000 | – | 199 to 200
6 | Cc1cc(Nc2nc(N3CCCCC3)nc3ccccc23)[nH]n1 [III-108, (5-Methyl-2H-pyrazol-3-yl)-(2-piperidin-1-yl-quinazolin-4-yl)-amine] | < 100 | < 100 | 1000 to 12000 | – | 294
